Data set [1] deals with T1, MT-3 receptor (Mesocricetus auratus, UniProt A0ABM2YAB8).
T1 construct: from tissue; host or cells: hamster brain membranes
T1 sequence (A0ABM2YAB8 1-231): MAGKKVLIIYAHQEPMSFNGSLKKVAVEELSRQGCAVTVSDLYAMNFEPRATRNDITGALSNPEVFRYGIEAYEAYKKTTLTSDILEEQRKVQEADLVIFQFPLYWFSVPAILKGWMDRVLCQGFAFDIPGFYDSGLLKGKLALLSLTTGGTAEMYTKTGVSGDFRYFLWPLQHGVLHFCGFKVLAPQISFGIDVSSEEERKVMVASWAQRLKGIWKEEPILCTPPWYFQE
Kind of data set: 125I-melatonin binding in hamster brain membranes, MT-3. As to the method: Aliquots of suspended membranes of human recombinant CHP-K1 (Chinese hamster ovary) cells stably expressing human melatonin-1 or melatonin-2 (MT-1 or MT-2) receptors or of hamster brain (MT-3) were incubated at 25° C. with 0.05 nM ^125I-melatonin in buffer (25 mM HEPES, pH 7.4, 5 mM MgCl2, 1 mM CaCl2, 0.5% BSA) or with 0.1 nM for MT-3 alone or in the presence of 1 nM, 10 nM, 0.1 μM, 1 μM and 10 μM of test substances N-[2-(5-methoxy-indol-3-yl)-ethyl]-commenamide, N-[2-(5-methoxy-indol-3-yl)-ethyl]-comanilamide, N-[2-(5-methoxy-indol-3-yl)-ethyl]-coumalylamide, N-[2-(5-methoxy-indol-3-yl)-ethyl]-2-methoxy-commenamide, N-[2-(5-methoxy-indol-3-yl)-ethyl]-chelidonamide, O-[2-(5-methoxy-indol-3-yl)-ethyl]-comenic ester, N-[2-(5-methoxy-indol-3-yl)-ethyl]-2-Pyrone-6-carboxamide and N-[2-(2-bromo-5-methoxy-indol-3-yl)-ethyl]-coumalylamide for 3 hours for MT-1, 4 hours for MT-2 and 30 min for MT-3. The binding reaction was terminated and the membranes were washed with 4 ml of ice-cold HEPES buffer by vacuum filtration. Membranes were then collected, and the filters containing the bound ^125I-melatonin were assayed for the amount of radioactivity in a […]. Non-specific binding was evaluated using a reaction with 1 μM 6-chloromelatonin (MT-1 and MT-2) or 30 μM melatonin (MT-3).

Data set [2] deals with CD1 mice. Put plainly: Motimeter assay (motor activity and rearing). Format: in vivo. The note with it: 100 mg/kg i.p. How it is done:
Mice were starved for 16 hrs before treatment. Male CD1 mice, weighing 25-30 g, were treated intraperitoneally with melatonin, N-[2-(5-methoxy-indol-3-yl)-ethyl]-comanilamide or N-[2-(5-methoxy-indol-3-yl)-ethyl]-commenamide in a dose of 100 mg/kg. The horizontal (i.e. locomotion) and vertical (i.e. rearing) movements were measured for 5 minutes two times, 30 and 60 min after treatment. Eight mice/group were used. The 4-channel activity meter is a square-shaped frame containing transparent infra-red permeable acrylic cages. The frames feature two pairs of light-beam strips for measuring horizontal movements, and two pairs for measuring rearing. Each strip is equipped with 16 infra-red sensors.

Data set [3] concerns 3T3-L1 adipocytes. Kind of data set: 2-[3H]-deoxy-d-glucose uptake in FFA-treated 3T3-L1 adipocyte model. Format: cell-based. How it is done: Adipocytes were glucose-starved for 1 h in Hepes-salt buffer containing 2% FFA-free BSA. FFA (free fatty acids) were then added to the cells at the indicated concentrations (300 μM) for the indicated times (3 h). 10 min before the end of the FFA treatment, the cells were stimulated with insulin (20 nM)/melatonin (10 nM)/test compounds (10 nM) at 37° C. 2-[^3H]-deoxy-d-glucose at 1 μCi/mL and 0.1 mM unlabeled 2-deoxyglucose in KRP-HEPES buffer was added and cells were incubated for 10 min at room temperature. Non-specific glucose uptake was measured by parallel incubations in the presence of 10 μM cytochalasin B, which blocks transporter-mediated glucose uptake, and was subtracted from total uptake in each assay. Cells were then washed three times with ice-cold phosphate buffered saline (PBS) and solubilized in 1M NaOH for 20 minutes. The sample was then counted using a scintillation counter. 2-[^3H]-deoxy-d-glucose uptake was assayed in triplicates for each condition in at least 3 independent experiments. 2-[^3H]-deoxy-d-glucose uptake (counts per minute-cpm) are presented as mean+SE of triplicates in a representative experiment or results of three independent experiments. ANOVA test was used with significance of P<0.05 (Table 7).

The test system of data set [4] is PC12 cells. Kind of data set: Glutamate-induced loss of cell viability in PC12 cells (MTT). The data set is classed as cell-based. The note with it: 1 uM, without glutamate. As to the method: For the cell viability assays, 24 h after seeding in 96-well plates, the cultures were pretreated with N-[2-(5-methoxy-indol-3-yl)-ethyl]-comanilamide (100 pm, 1 nM, 10 nM, 100 nM, 1 uM and 10 uM) or melatonin (1 uM) for 0 h before exposure to 4 mM glutamate. After 24 h incubation, cellular viability was evaluated by MTT assay.
PC12 cell viability was determined by the conventional 3-(4,5-dimethylthiazol-2-yl)-2,5-diphenyltetrazolium bromide (MTT) assay. PC12 cells were treated with MTT solution (0.5 mg/ml) and were then incubated at 37° C. for 4 hrs. The medium was removed and 150 μl DMSO/well was added to dissolve formazan. The absorbance at 570 nm was recorded using an enzyme-linked immunosorbent assay reader and the percentage of cell growth inhibition was calculated as follows: Cell viability (%)=A570 (treatment)/A570 (control)×100.

SMILES strings stand for the structures. pIC50, pKi: −log10 of the molar value.

As to `COc1ccc2[nH]cc(CCNC(C)=O)c2c1` [Melatonin, N-acetyl-5-methoxy-tryptamine, reference compound], in data set [1] (0.1 nM 125I-melatonin, 30 min, read-out: MT-3 receptor binding IC50), the pIC50 – broadly, the negative decadic logarithm of the IC50, by convention in mol/L – is 7.33. The pKi (usually −log10 of the Ki, conventionally taken in molar units) in data set [1] (0.1 nM 125I-melatonin, 30 min, read-out: MT-3 receptor binding KI) is 7.34. For the same compound, the inhibition – broadly, the change of the read-out against control, counted positive when it falls – at 10 µM in data set [1] (read-out: MT-3 receptor binding % inhibition by 10 μM) was 100%. In addition, the “effect on motor activity and rearing” value in data set [2] (30-35 min and 60-65 min after treatment) is “did not change significantly the motor activity and rearing”. The “motor activity (horizontal movement) changes (%) 30 min” value in data set [2] (30 min, vs vehicle) was −26.5%. The “motor activity (horizontal movement) 30 min Means ± SE” value in data set [2] (30 min after treatment, 5 min measurement) came to 316.1 ± 45.5. Besides, the “motor activity (horizontal movement) changes (%) 60 min” value in data set [2] (60 min, vs vehicle) is on record as −19.0%. For the same compound, the “motor activity (horizontal movement) 60 min Means ± SE” value in data set [2] (60 min after treatment, 5 min measurement) is recorded as 256.1 ± 27.3. In addition, in data set [3] (FFA-impaired insulin signaling), the “effect on glucose transport in FFA-treated adipocytes” value is given as “improved glucose transport”. Further, the “2-[3H]-deoxy-d-glucose uptake (cpm)” value in data set [3] (Insulin 20 nM + FFA 300 μM (3 h) + substance 10 nM) was determined as 1489 cpm. Further, the “effect on cell viability without glutamate” value in data set [4] is recorded as “had no effect on the cell viability”.

Values taken from patent publication US9101613B2, “Methods for treating neurological disease” (Neurim Pharmaceuticals (1991) Ltd., priority 2006, dated 2015).
